Structures can show the parent of a compound that is named as a salt. Where two headings read alike, the source gives them in different places. Values belong to the compound of their own block, whether it stands above or below them.
What was measured:
[1] = Olovson et al. 1986, Kumar et al. 2013; cited from earlier work
[2] = Solubility of compound G (amorphous) and its monomaleate salt (crystalline) in water, buffers and solvents; format: physicochemical
[3] = Stability of Form A and its freebase, one month storage; format: physicochemical; conditions: for % Decomposition: 1 month
Procedure: The stability of Form A and its freebase was tested at ambient conditions (25° C. and 40% relative humidity, “RH”), and at elevated temperature and humidity (40° C. and 75% RH) over the duration of one month.

[4] = pKa of the monomaleate salt; format: physicochemical

Structure (SMILES): C=CCc1ccccc1OCC(O)CNC(C)C (stereo not drawn) [alprenolol]
solubility of the maleate salt compared to other counterions, such as fumarate [1]: decreased solubility

solubility ([2]; 25 mM Na citrate buffer, pH 4.9, aqueous buffer, 25 mM Na Citrate, pH 4.9, amorphous, read-out: Solubility): 46000 µg/mL | solubility ([2]; 25 mM Na citrate buffer, pH 5.1, aqueous buffer, 25 mM Na Citrate, pH 5.1, amorphous, read-out: Solubility): 32000 µg/mL | solubility ([2]; 25 mM Na citrate buffer, pH 5.2, aqueous buffer, 25 mM Na Citrate, pH 5.2, amorphous, read-out: Solubility): 24800 µg/mL | solubility ([2]; 25 mM Na citrate buffer, pH 5.4, aqueous buffer, 25 mM Na Citrate, pH 5.4, amorphous, read-out: Solubility): 19500 µg/mL | solubility ([2]; 25 mM Na citrate buffer, pH 5.8, aqueous buffer, 25 mM Na Citrate, pH 5.8, amorphous, read-out: Solubility): 11200 µg/mL | solubility ([2]; 25 mM Na citrate buffer, pH 6.3, aqueous buffer, 25 mM Na Citrate, pH 6.3, amorphous, read-out: Solubility): 9800 µg/mL | solubility ([2]; 25 mM Na citrate buffer, pH 6.8, aqueous buffer, 25 mM Na Citrate, pH 6.8, amorphous, read-out: Solubility): 8800 µg/mL | solubility ([2]; 0.9% saline, pH 7.6, saline or isotonic, 0.9% saline, pH 7.6, amorphous, read-out: Solubility): 9400 µg/mL | solubility ([2]; 10% EtOH, aqueous with cosolvent or surfactant or cyclodextrin, EtOH, 10%, amorphous, read-out: Solubility): 13700 µg/mL | solubility ([2]; 10% NMP, aqueous with cosolvent or surfactant or cyclodextrin, NMP, 10%, amorphous, read-out: Solubility): 28800 µg/mL | solubility ([2]; 10% PEG 400, aqueous with cosolvent or surfactant or cyclodextrin, PEG 400, 10%, amorphous, read-out: Solubility): 11800 µg/mL | solubility ([2]; 10% PG, aqueous with cosolvent or surfactant or cyclodextrin, PG, 10%, amorphous, read-out: Solubility): 12100 µg/mL | solubility ([2]; 10% glycerol, aqueous with cosolvent or surfactant or cyclodextrin, glycerol, 10%, amorphous, read-out: Solubility): 8600 µg/mL | solubility ([2]; 33% EtOH, aqueous with cosolvent or surfactant or cyclodextrin, EtOH, 33%, amorphous, read-out: Solubility): 20000 µg/mL | solubility ([2]; 33% NMP, aqueous with cosolvent or surfactant or cyclodextrin, NMP, 33%, amorphous, read-out: Solubility): > 100000 µg/mL | solubility ([2]; 33% PEG 400, aqueous with cosolvent or surfactant or cyclodextrin, PEG 400, 33%, amorphous, read-out: Solubility): 17400 µg/mL | solubility ([2]; 33% PG, aqueous with cosolvent or surfactant or cyclodextrin, PG, 33%, amorphous, read-out: Solubility): 20500 µg/mL | solubility ([2]; 33% glycerol, aqueous with cosolvent or surfactant or cyclodextrin, glycerol, 33%, amorphous, read-out: Solubility): 5800 µg/mL | solubility ([2]; 67% EtOH, aqueous with cosolvent or surfactant or cyclodextrin, EtOH, 67%, amorphous, read-out: Solubility): > 100000 µg/mL | solubility ([2]; 67% NMP, aqueous with cosolvent or surfactant or cyclodextrin, NMP, 67%, amorphous, read-out: Solubility): > 100000 µg/mL | solubility ([2]; 67% PEG 400, aqueous with cosolvent or surfactant or cyclodextrin, PEG 400, 67%, amorphous, read-out: Solubility): > 50000 µg/mL | solubility ([2]; 67% PG, aqueous with cosolvent or surfactant or cyclodextrin, PG, 67%, amorphous, read-out: Solubility): > 100000 µg/mL | solubility ([2]; 67% glycerol, aqueous with cosolvent or surfactant or cyclodextrin, glycerol, 67%, amorphous, read-out: Solubility): 5400 µg/mL | solubility ([2]; 100% EtOH, organic solvent or mixture, EtOH, 100%, amorphous, read-out: Solubility): > 100000 µg/mL | solubility ([2]; 100% NMP, organic solvent or mixture, NMP, 100%, amorphous, read-out: Solubility): > 100000 µg/mL | solubility ([2]; 100% PEG 400, organic solvent or mixture, PEG 400, 100%, amorphous, read-out: Solubility): > 50000 µg/mL | solubility ([2]; 100% PG, organic solvent or mixture, PG, 100%, amorphous, read-out: Solubility): > 100000 µg/mL | solubility ([2]; PBS, pH 7.2, aqueous buffer, PBS, pH 7.2, amorphous, read-out: Solubility): 7600 µg/mL | solubility ([2]; glycerol, 100%, amorphous): not soluble | solubility ([2]; water, pH 7.4, water, Water, pH 7.4, amorphous, read-out: Solubility): 8900 µg/mL | solubility ([2]; water, read-out: solubility in water): 8900 µg/mL | % Decomposition ([3]; 25° C./40% RH, lot 1): 1.9% | % Decomposition ([3]; 25° C./40% RH, lot 2): 1.6% | % Decomposition ([3]; 25° C./40% RH, lot 3): 1.4% | % Purity at 1 Month ([3]; 25° C./40% RH, lot 1 (purity at t = 0 95.1)): 93.2% | % Purity at 1 Month ([3]; 25° C./40% RH, lot 2 (purity at t = 0 85.6)): 84.0% | % Purity at 1 Month ([3]; 25° C./40% RH, lot 3 (purity at t = 0 93.7)): 92.3% | stability at elevated temperature and humidity (in words) ([3]; 40° C. and 75% RH, one month): rapid decomposition | % Decomposition ([3]; 40° C./75% RH, lot 1): 67.5% | % Decomposition ([3]; 40° C./75% RH, lot 2): 28.8% | % Decomposition ([3]; 40° C./75% RH, lot 3): 21.1% | % Purity at 1 Month ([3]; 40° C./75% RH, lot 1 (purity at t = 0 95.1)): 92.3% | % Purity at 1 Month ([3]; 40° C./75% RH, lot 2 (purity at t = 0 85.6)): 92.3% | % Purity at 1 Month ([3]; 40° C./75% RH, lot 3 (purity at t = 0 93.7)): 72.5%
Structure (SMILES): COc1ccc([C@@H](O)[C@H](NC(=O)[C@H](C)NC(=O)CN2CCOCC2)C(=O)N[C@@H](CC2=CCCC2)C(=O)[C@@]2(C)CO2)cc1 [compound G, (2S,3R)—N-[(2S)-3-(cyclopent-1-en-1-yl)-1-[(2R)-2-methyloxiran-2-yl]-1-oxopropan-2-yl]-3-hydroxy-3-(4-methoxyphenyl)-2-[(2S)-2-[2-(morpholin-4-yl)acetamido]propanamido]propanamide]

solubility ([2]; 2-methyltetrahydrofuran, organic solvent or mixture, 2-Methyltetrahydrofuran, crystalline, read-out: Solubility): 1760 µg/mL | solubility ([2]; acetone, organic solvent or mixture, Acetone, crystalline, read-out: Solubility): 3190 µg/mL | solubility ([2]; acetonitrile, organic solvent or mixture, Acetonitrile (ACN), crystalline, read-out: Solubility): 1300 µg/mL | solubility ([2]; aqueous medium, aqueous, read-out: aqueous solubility): > 100000 µg/mL | solubility ([2]; dichloromethane, organic solvent or mixture, Dichloromethane (DCM), crystalline, read-out: Solubility): 210 µg/mL | solubility ([2]; ethanol, organic solvent or mixture, Ethanol (EtOH), crystalline, read-out: Solubility): 6970 µg/mL | solubility ([2]; ethyl acetate, organic solvent or mixture, Ethyl acetate (EA), crystalline, read-out: Solubility): 470 µg/mL | solubility ([2]; isopropanol, organic solvent or mixture, Isopropanol (IPA), crystalline, read-out: Solubility): 3280 µg/mL | solubility ([2]; isopropyl acetate, organic solvent or mixture, Isopropyl acetate (IPAc), crystalline, read-out: Solubility): 130 µg/mL | solubility ([2]; methanol, organic solvent or mixture, Methanol (MeOH), crystalline, read-out: Solubility): 42100 µg/mL | solubility ([2]; methyl tert-butyl ether, organic solvent or mixture, Methyl tert-butyl ether (MTBE), crystalline, read-out: Solubility): 170 µg/mL | solubility ([2]; tetrahydrofuran, organic solvent or mixture, Tetrahydrofuran (THF), crystalline, read-out: Solubility): 1960 µg/mL | solubility ([2]; toluene, organic solvent or mixture, Toluene, crystalline, read-out: Solubility): 20 µg/mL | solubility ([2]; water, ambient temperature (e.g., 20° C. to 25° C.), read-out: solubility in water): > 100000 µg/mL | pKa [4]: 5
Structure (SMILES): COc1ccc([C@@H](O)[C@H](NC(=O)[C@H](C)NC(=O)CN2CCOCC2)C(=O)N[C@@H](CC2=CCCC2)C(=O)[C@@]2(C)CO2)cc1 [monomaleate salt of compound G]

Reference: patent publication US10836756B2, “Crystalline salts of peptide epoxyketone immunoproteasome inhibitor” (KEZAR LIFE SCIENCES, priority 2016, dated 2020)
